Results taken from article PMC4151564 (Journal of medicinal chemistry, 2011).

Experiments:
[1] = biological target: T1, eukaryotic topoisomerase IIα (Homo sapiens, UniProt P11388); test: Gel-based Topo-IIα inhibition mechanism assay; format: biochemical; conditions: 500 μM inhibitor, 4 units enzyme
[2] = biological target: T1, eukaryotic topoisomerase IIα; test: Topo-IIα inhibition, agarose gel supercoiled DNA relaxation assay; format: biochemical; conditions: for Topo-IIα inhibition at 100 μM: 100 μM TSC ligand, gel Figure 1B
[3] = biological target: T1, eukaryotic topoisomerase IIα; conditions: read-out: Topo-IIα inhibition IC50; literature range; cited from earlier work
[4] = tested on: Topo-IIα; conditions: cited from earlier work

T1 sequence (P11388 whole entry): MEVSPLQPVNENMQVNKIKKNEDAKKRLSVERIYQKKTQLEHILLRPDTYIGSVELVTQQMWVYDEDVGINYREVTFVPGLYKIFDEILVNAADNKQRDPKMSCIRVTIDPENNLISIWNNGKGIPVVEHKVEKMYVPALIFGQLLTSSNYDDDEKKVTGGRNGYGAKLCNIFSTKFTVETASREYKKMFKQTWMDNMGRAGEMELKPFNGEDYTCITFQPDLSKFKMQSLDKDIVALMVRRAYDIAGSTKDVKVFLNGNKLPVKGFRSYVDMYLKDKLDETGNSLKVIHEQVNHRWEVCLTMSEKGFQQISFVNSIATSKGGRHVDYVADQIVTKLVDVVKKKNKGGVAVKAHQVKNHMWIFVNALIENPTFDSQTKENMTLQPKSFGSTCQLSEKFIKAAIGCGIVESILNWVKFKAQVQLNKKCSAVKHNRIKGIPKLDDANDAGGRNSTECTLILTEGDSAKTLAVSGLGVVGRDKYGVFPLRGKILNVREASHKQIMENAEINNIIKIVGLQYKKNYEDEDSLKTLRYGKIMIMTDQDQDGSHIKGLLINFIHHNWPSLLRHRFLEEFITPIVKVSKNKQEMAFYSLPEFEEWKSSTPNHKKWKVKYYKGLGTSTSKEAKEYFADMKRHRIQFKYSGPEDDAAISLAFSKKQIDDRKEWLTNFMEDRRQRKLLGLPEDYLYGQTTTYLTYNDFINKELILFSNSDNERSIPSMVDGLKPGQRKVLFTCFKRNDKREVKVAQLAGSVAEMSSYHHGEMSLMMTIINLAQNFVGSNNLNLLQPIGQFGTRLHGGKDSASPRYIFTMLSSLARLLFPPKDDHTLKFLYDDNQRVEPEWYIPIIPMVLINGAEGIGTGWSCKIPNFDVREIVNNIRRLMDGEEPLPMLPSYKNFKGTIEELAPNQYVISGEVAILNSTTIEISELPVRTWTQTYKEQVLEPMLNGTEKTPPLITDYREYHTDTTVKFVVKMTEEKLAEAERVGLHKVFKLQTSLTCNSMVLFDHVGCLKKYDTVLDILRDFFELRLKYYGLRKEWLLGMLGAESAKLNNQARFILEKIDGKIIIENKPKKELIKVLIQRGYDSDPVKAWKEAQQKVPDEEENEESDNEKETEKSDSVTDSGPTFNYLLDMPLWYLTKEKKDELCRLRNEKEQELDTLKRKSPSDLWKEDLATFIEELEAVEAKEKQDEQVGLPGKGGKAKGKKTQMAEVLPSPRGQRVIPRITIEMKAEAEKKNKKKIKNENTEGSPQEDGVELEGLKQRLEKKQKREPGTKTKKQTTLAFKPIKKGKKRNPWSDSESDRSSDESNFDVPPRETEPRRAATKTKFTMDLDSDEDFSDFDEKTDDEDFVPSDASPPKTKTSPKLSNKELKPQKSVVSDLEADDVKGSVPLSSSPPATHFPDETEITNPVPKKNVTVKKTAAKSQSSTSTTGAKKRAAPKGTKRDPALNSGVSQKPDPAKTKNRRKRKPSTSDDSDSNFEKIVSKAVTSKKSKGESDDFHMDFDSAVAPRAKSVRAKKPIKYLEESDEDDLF

Row | Compound | Topo-IIα inhibition mechanism (formation of linear DNA) [1] | Topo-IIα inhibition at 100 μM [2] | other results
1 | COc1cc(NS(C)(=O)=O)ccc1Nc1c2ccccc2nc2ccccc12 [m-AMSA] | produce discrete bands of linear DNA |  | 
2 | [Cl][Cu][Cl] [CuCl2] |  |  | Topo-IIα inhibition, control experiment ([2]; any concentrations below 500 μM): does not inhibit the enzyme
3 | CCNC(=S)N/N=C(\C)c1ccccn1 [HAp4eT, (E)-N-Ethyl-2-(1-(pyridin-2-yl)ethylidene)hydrazinecarbothioamide] |  | displaying any degree of inhibition | 
4 | O=c1c(-c2ccc(O)cc2)coc2cc(O)cc(O)c12 [genistein] | produce discrete bands of linear DNA |  | 
5 | COc1cccc2c1C(=O)c1c(O)c3c(c(O)c1C2=O)C[C@@](O)(C(=O)CO)C[C@@H]3O[C@H]1C[C@H](N)[C@H](O)[C@H](C)O1 [doxorubicin] |  |  | IC50 [3]: 1 to 5 µM
6 | CNC(=S)N/N=C/c1ccccn1 [HFp4mT, (E)-N-Methyl-2-(pyridin-2-ylmethylene) hydrazinecarbothioamide] |  | displaying any degree of inhibition | 
7 | O=C1NC(=S)NC(=O)C1C(=O)Nc1ccccc1 [merbarone] |  |  | IC50 [3]: 40 to 50 µM
8 | 2-Formylpyridine-N^4-allylthiosemicarbazonatochlorocopper (II) [Cu(Fp4alT)Cl] | completely inhibits Topo-IIα without promoting the formation of linear DNA products |  | 
9 | CCNC(=S)N/N=C/c1ccccn1 [HFp4eT, (E)-N-Ethyl-2-(pyridin-2-ylmethylene)hydrazinecarbothioamide] |  | displaying any degree of inhibition | 
10 | CN(C)C(=S)NN=C(c1ccccn1)c1ccccn1 [Dp44mT, di-2-pyridylketone-4,4-dimethylthiosemicarbazone] |  |  | concentration at which in vivo Topo-IIα inhibition was found [4]: < 1 µM
11 | CNC(=S)N/N=C(\C)c1ccccn1 [HAp4mT, (E)-N-Methyl-2-(1-(pyridin-2-yl)ethylidene)hydrazinecarbothioamide] |  | displaying any degree of inhibition | 
12 | Cc1c2ccncc2c(C)c2c1[nH]c1ccccc12 [ellipticine] | produce discrete bands of linear DNA |  | 
